BigSolDB 2.1

CN1c2ccccc2C(=O)N2CCc3c([nH]c4ccccc34)[C@H]21
solubility (mole fraction)
Settings	283.15 K	288.15 K	293.15 K	298.15 K	303.15 K	308.15 K	313.15 K	318.15 K	323.15 K
in acetone	0.000192	0.000226	0.000267	0.000315	0.000364	0.000426	0.000491	0.000571	0.000651
in ethanol	5.94e-05	7.31e-05	8.95e-05	0.00011	0.000132	0.000157	0.000186	0.000222	0.000263
in isopropanol	6.79e-05	8.16e-05	9.91e-05	0.000121	0.000142	0.00017	0.0002	0.000237	0.000276
in methanol	3.43e-05	4.34e-05	5.4e-05	6.72e-05	8.31e-05	0.000102	0.000124	0.000149	0.000182
